Results from patent US6106844A, “Immunomodulatory peptides of vespid antigen 5” (The Rockfeller University, priority 1998, dated 2000).

B1: Tpx-N: recombinant fragment of mouse testis protein Tpx, residue 14-106 (protein)
chain: LLRSPLTEGKDPDFTSLLTNQLQVQREIVNKHNELRRSVNPTGSDILKMEWSIQATTNAQKWANKCILEHSSKDDRKINIRCGENLYMSTDPT
B2: fragment IN: recombinant N-terminal fragment of hornet antigen 5, residue 1-114 (protein)
chain: PIINLSFGEANNYCKIKCSRGIHTLCKFGTSMKPNCGSKLVKVHGVSNDEKNEIVNRHNQFRQKVAKGLETRGNPGPQPPAKNMNVLVWNDELAKIAQTWANQCSFGHDQCRNT
B3: Tpx-C: recombinant fragment of mouse testis protein Tpx, residue 101-163 (protein)
chain: MSTDPTLWSTVIQSWYNENEDFVYGVGAKPNSAVGHYTQLVWYSSFKIGCGIAYCPNQDNLKY

Assays:
Assay type in all cases: cell-based
[1] = system: r-Ag5 specific spleen cells from C3H/He mice; test: In vitro proliferation assay, spleen cells of r-Ag5-immunized C3H/He mice; details: spleen cells from mice immunized 5 times with rAg5; blank 3130 cpm
Protocol: (§1) FIG. 13. Stimulation index profile of C3H/He mice spleens after 5 immunizations with r-Ag5. In vitro proliferation assays were performed with peptides at three concentrations: 1×10^-5 M (open bar), 1.25×10^-6 M ("uphill" hatch), and 1.56×10^-7 M ("downhill" hatch). The corresponding concentrations of recombinant Antigen 5 were 1.0×10^-6 M, 1.25×10^-7, and 1.56×10^-8 M. The blank was 3130 cpm.
(§2) The peptides of the invention can be tested in a proliferation assay for T cell responses. Generally, lymphocytes from a sensitized host are obtained. The host can be a mouse that has been immunized with a vespid venom antigen 5, or with a crossreactive protein, such as testes specific protein. Using techniques that are well known in the art, T lymphocyte response to the peptide can be measured in vitro. In a specific embodiment, infra, T cell responses are detected by measuring incorporation of ^3 H-thymidine, which increases with DNA synthesis associated with proliferation. Cell proliferation can also be detected using an MTT assay [Mossman, J. Immunol. Methods, 65:55-63,(1983); Niks and Otto, J. Immunol. Methods, 130:140-151 (1990)]. […] Alternatively, mRNA for lymphokines can be detected, e.g., by amplification [see Brenner, et al., Biotechniques, 7:1096 (1989)] or in situ hybridization [see, e.g., Kasaian and Biron, J. Immunol., 142:1287 (1989)]. […]

[2] = system: r-Ag5 specific spleen cells from C57B1/6 mice; test: In vitro proliferation assay, spleen cells of r-Ag5-immunized C57B1/6 mice; details: spleen cells from mice immunized 5 times with rAg5; blank 1050 cpm
Protocol: as §1, with “14.” for “13.”, “CS7B1/6” for “C3H/He”, “1.56×10 ^-7” for “1.56×10^-7”, “1050” for “3130”
as §2

[3] = system: r-Ag5 specific spleen cells from ASW/Sn mice; test: In vitro proliferation assay, spleen cells of r-Ag5-immunized ASW/Sn mice; details: spleen cells from mice immunized 5 times with rAg5; blank 5640 cpm
Protocol: as §1, with “11.” for “13.”, “ASW/sn” for “C3H/He”, “5640” for “3130”
(§3) The peptides of the invention can be tested in a proliferation assay for T cell responses. Generally, lymphocytes from a sensitized host are obtained. The host can be a mouse that has been immunized with a vespid venom antigen 5, or with a crossreactive protein, such as testes specific protein. Using techniques that are well known in the art, T lymphocyte response to the peptide can be measured in vitro. In a specific embodiment, infra, T cell responses are detected by measuring incorporation of ^3 H-thymidine, which increases with DNA synthesis associated with proliferation. Cell proliferation can also be detected using an MTT assay [Mossman, J. Immunol. Methods, 65:55-63,(1983); Niks and Otto, J. Immunol. Methods, 130:140-151 (1990)]. Alternatively, lymphokine production assays can be practiced according to the present invention. In one embodiment, lymphokine production can be assayed using immunological or co-stimulation assays [see, e.g., Fehlner et al., J. Immunol., 146:799 (1991)] or using the ELISPOT technique [Czerkinsky, et al., J. Immunol. Methods, 110:29 (1988)]. Alternatively, mRNA for lymphokines can be detected, e.g., by amplification [see Brenner, et al., Biotechniques, 7:1096 (1989)] or in situ hybridization [see, e.g., Kasaian and Biron, J. Immunol., 142:1287 (1989)]. Of particular interest are those individuals whose T cells produce lymphokines associated with IgE isotype switch events, e.g., IL-4 and IL-5 [Purkeson and Isakson, J. Exp. Med., 175:973-982 (1992)]. Also of interest are the peptide fragments of the vespid venom antigen 5 that contain epitopes recognized by T cells involved in IgE switch events. […]

[4] = system: Ag5 specific spleen cells from BALB/c mice; test: In vitro proliferation assay, spleen cells of Ag5-immunized BALB/c mice; details: for Stimulation Index BALB/c: spleen cells from mice immunized with rAg5, blank 3970 cpm
Protocol: FIG. 4. Stimulation index profile of BALB/c mice spleens after 4 immunizations with natural (n)-Ag5. In vitro proliferation assays were performed with peptides at three concentrations: 1×10^-5 M (open bar), 1.25×10^-6 M ("uphill" hatch), and 1.56×10^-7 M ("downhill" hatch). The corresponding concentrations of recombinant antigen 5 control were 1.0×10^-6 M, 1.25×10^-7, and 1.56×10^-8 M. The blank was 2200 cpm.
as §1, with “FIG. 5.” for “FIG. 13.”, “of BALB/c” for “of C3H/He”, “after 4” for “after 5”, “with recombinant (r)-Ag5.” for “with r-Ag5.”, “was 4700” for “was 3130”
FIG. 6. […] In vitro proliferation assays were performed with peptides at three concentrations: 1×10^-5 M (open bar), 1.25×10^-6 M ("uphill" hatch), and 1.56×10^-7 M ("downhill" hatch). The corresponding concentrations of recombinant Antigen 5 were 1.0×10^-6 M, 1.25×10^-7, and 1.56×10^-8 M. […]
as §3

[5] = system: r-Ag5 specific spleen cells from mice of different strains; test: Summary of proliferation indices across mouse strains; details: four strains BALB/c, ASW/Sn, C3H/He, P/J, C57B1/6 excluded
Text: Summary of proliferation indices of r-Ag5 specific spleen
cells from mice of different strains on stimulation with the
dominant T cell epitope peptides^1
^1 Dominant T cell epitopes are defined as those peptides which showe
stimulation indices of ≥4 in at least one of 5 strains of mice
The present Example defines indices of 4 or greater for proliferation of Ag5- specific cells as containing a T cell epitope of Ag5. With this definition, the data in FIGS. 3-13 for mice of 5 strains with different haplotypes would indicate that the T cell epitopes of Ag5 are distributed throughout the entire molecule. As C57B1/6 mice is a poor responder, its data are excluded in the following comparison.
The data in Table 4 indicate that 14 peptides contain T cell epitopes of Ag5. Three of these peptides are recognized by three of the four strains tested, five of them by two strains and the remaining six by only one strain. […] They are peptides 1, 2, 5, 6, 9, 15, 20 and 18. […] This is particularly apparent for peptides 6, 20, and 18.

[6] = system: Tpx-C primed spleen cells from BALB/c mice; test: In vitro proliferation assay, Tpx-C primed spleen cells; details: BALB/c mice after 4 immunizations with r-fragment Tpx-C (residue 101-163)
Protocol: FIG. 16. Stimulation index profile of BALB/c mice spleen cells after 4 immunizations with Tpx-C. Stimulation was tested with peptide or protein at three different concentrations: Open bars--1×10^-5 M peptide, 5×10^-6 M Frag C or Tpx-C; "uphill" hatch--1.25×10^-6 M peptide; 6.25×10^-7 M Frag C or Tpx-C; "downhill" hatch--1.56×10^-7 M peptide, 7.8×10^-8 M Frag C, Tpx-C: and stippled--9.75×10^-9 M Frag-C or Tpx-C. The blank was 5110 cpm.
as §3

[7] = system: Tpx-N primed spleen cells from BALB/c mice; test: In vitro proliferation assay, Tpx-N primed spleen cells; details: BALB/c mice after 4 immunizations with r-fragment Tpx-N (residue 14-106)
Protocol: FIG. 15. Stimulation index profile of BALB/c mice spleen cells after 4 immunizations with Tpx-N. Stimulation was tested with peptide or protein at three different concentrations: Open bars--1.0×10^-5 M peptide or Frag IN, 2.5×10^-6 M Tp X-N; "uphill" hatch--1.25×10^-6 M peptide or Frag IN. 3.13×10^-7 M, Tpx-N; "downhill" hatch--1.5×10^-7 M peptide and Frag IN, 3.91×10^-8 M Tpx-N; and stippled --1.96×10^-8 M Frag IN, 4.89×10^-9 M Tpx-N. The blank was 7270 cpm.
as §3, with “(1992)].” for “(1992)]. Also of interest are the peptide fragments of the vespid venom antigen 5 that contain epitopes recognized by T cells involved in IgE switch events.”

Molecule	Stimulation Index C57B1/6 [2]	Stimulation Index ASW/Sn [3]	Stimulation Index BALB/c [4]	recognition by more than one mouse strain (stimulation indices of ≥4) [5]	stimulation indices, Tpx-C primed spleen cells (FIG. 16) [6]	stimulation indices, Tpx-N primed spleen cells (FIG. 15) [7]	further results
NNYCKIKCRKGIHTLCKFGT [Peptide 1, white face hornet antigen 5 form 2, residue 1-20]	2.5	1.9	8.6	recognized by two or three strains of mice			Stimulation Index C3H/He [1]: 2.4; stimulation indices (FIG. 4-6 together) ([4]; BALB/c mice immunized 4 times with n-Ag5 or with r-Ag5): ≥ 4; recognition by more than one mouse strain (stimulation indices of ≥4) ([5]; listed as SEQ ID NO:8): dominant in more than one strain of mouse
GIHTLCKFGTSMKPNCGRNV [Peptide 2, white face hornet antigen 5 form 2, residue 11-30]	1.9	2.2	2.9	recognized by two or three strains of mice			recognition by more than one mouse strain (stimulation indices of ≥4) ([5]; listed as SEQ ID NO:9): dominant in more than one strain of mouse
fragment C: recombinant C-terminal fragment of hornet antigen 5, residue 151-204 (NPKKGTMGDNNFSKVGHYTQMVWGKTKEIGCGSVKYIENNWHTHYLVCNYGPAG)					9		stimulation indices, Tpx-C primed spleen cells (FIG. 16) ([6]; listed as r-fragment C): responded equally well
B1						greater than 6	
B2						greater than 6	stimulation indices, Tpx-N primed spleen cells (FIG. 15) ([7]; listed as r-fragment IN): responded equally well
B3					greater than 15		
